“And” between values parts separate entries of the source, which are not always exact repeats. Identical values can stand only once.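 The compound was tested at five concentrations on cells cultured in 96-well plates, with a 48-hour exposure period. At the GI50, growth is halved. TGI denotes the concentration required for complete inhibition of growth.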 A value given as a limit tells only on which side of the number the result lay.

Some test systems named below: OVCAR-4 ovarian; CAKI-1 renal; NCI-H23 lung; TK-10 renal; OVCAR-3 ovarian; SF-539 CNS; UACC-62 melanoma; MALME-3M melanoma; KM12 colon; SF-268 CNS.
Holding throughout (assay): NCI-60 cell line screen, 48 h

With `Cc1ccc(-c2c3c(N)nc(-c4ccncc4)nc3nc3c2c(C)nn3-c2ccccc2)cc1`, the GI50 in the assay with OVCAR-4 ovarian was 7.44 µM; with CAKI-1 renal, greater than 37.5 µM; in the assay with NCI-H23 lung it was 21.6 µM; in the assay on TK-10 renal, 9.5 µM; in the assay with OVCAR-3 ovarian, 7.65 µM; in the assay on SF-539 CNS, 2.26 µM. Besides, the GI50 was 13.8 µM with UACC-62 melanoma, 7.73 µM in the assay with MALME-3M melanoma, 31.4 µM in the assay with KM12 colon and 8.27 µM in the assay on SF-268 CNS. For the same molecule, the TGI with OVCAR-4 ovarian was 33.3 µM; with CAKI-1 renal, greater than 37.5 µM; in the assay on NCI-H23 lung, greater than 37.5 µM; in the assay on TK-10 renal, 25.6 µM; in the assay on OVCAR-3 ovarian, 20.1 µM; in the assay with SF-539 CNS, 7.57 µM. Besides, the TGI in the assay with UACC-62 melanoma is greater than 37.5 µM; in the assay on MALME-3M melanoma it was 16.2 µM; with KM12 colon, greater than 37.5 µM; with SF-268 CNS it was greater than 37.5 µM.
With `CC[C@@]1(OC(=O)C(N)CCC(=O)O)C(=O)OCc2c1cc1n(c2=O)Cc2cc3ccccc3nc2-1` (stereo not given in full), the TGI was greater than 20.8 µM in the assay with OVCAR-4 ovarian; 0.235 µM in the assay with CAKI-1 renal; 0.389 µM in the assay with NCI-H23 lung; greater than 100 µM with TK-10 renal; 2.07 µM in the assay on OVCAR-3 ovarian; 0.0754 µM in the assay with SF-539 CNS. In addition, the TGI turned out to be 0.16 µM with UACC-62 melanoma, 2.79 µM in the assay on MALME-3M melanoma, 6.1 µM in the assay on KM12 colon and 14.7 µM in the assay with SF-268 CNS.
As for `O=S1c2ccccc2N=C(c2ccc3ccccc3c2)CC1c1ccccc1F` (stereo not given), the TGI with OVCAR-4 ovarian, with CAKI-1 renal, in the assay on NCI-H23 lung, in the assay on TK-10 renal, in the assay with OVCAR-3 ovarian and in the assay with SF-539 CNS was greater than 100 µM in each case. The TGI in the assay on UACC-62 melanoma, in the assay with MALME-3M melanoma, in the assay with KM12 colon and with SF-268 CNS was greater than 100 µM throughout.
As to `COc1cccc(C(C#N)NC23CC4CC(CC(C4)C2)C3)c1` (stereo not given), the TGI in the assay on OVCAR-4 ovarian, with CAKI-1 renal, in the assay with NCI-H23 lung, with TK-10 renal, in the assay on OVCAR-3 ovarian and with SF-539 CNS was greater than 100 µM each time. The TGI in the assay with UACC-62 melanoma, in the assay with MALME-3M melanoma, in the assay with KM12 colon and in the assay with SF-268 CNS was greater than 100 µM in each case.
With `CC(N)CN.CC(N)CN.[Cl-].[O]=[Os+2]=[O]` (stereo not given), the GI50 with OVCAR-4 ovarian was greater than 100 µM; in the assay with CAKI-1 renal, greater than 100 µM; in the assay on NCI-H23 lung, greater than 100 µM; in the assay on TK-10 renal it was greater than 100 µM; in the assay on OVCAR-3 ovarian it was 81.4 µM; in the assay with SF-539 CNS, greater than 100 µM. The GI50 with UACC-62 melanoma was greater than 100 µM; in the assay with MALME-3M melanoma it was greater than 100 µM; with KM12 colon, greater than 100 µM; with SF-268 CNS it was 77.3 µM. Moreover, the TGI in the assay with OVCAR-4 ovarian, in the assay on CAKI-1 renal, in the assay on NCI-H23 lung, in the assay on TK-10 renal, with OVCAR-3 ovarian and in the assay on SF-539 CNS was greater than 100 µM each time. In addition, the TGI in the assay on UACC-62 melanoma, with MALME-3M melanoma, with KM12 colon and in the assay on SF-268 CNS was greater than 100 µM throughout.
Turning to `O=C1c2ccccc2C(=O)c2c(NCCNCCO)ccc(NCCNCCO)c21`, the GI50 in the assay on OVCAR-4 ovarian was 0.896 µM and 1.13 µM and 0.986 µM; with CAKI-1 renal, 2.31 µM and 2.42 µM and 4.94 µM; with NCI-H23 lung, 0.94 µM and 1.43 µM and 1.22 µM; in the assay on TK-10 renal it was 2.89 µM and 2.55 µM and 1.33 µM; with OVCAR-3 ovarian, 2.41 µM and 2.86 µM and 2.72 µM; with SF-539 CNS, 0.864 µM and 1.04 µM and 0.947 µM. The GI50 in the assay with UACC-62 melanoma is 1.03 µM and 1.2 µM and 1.06 µM; with MALME-3M melanoma, 1.6 µM and 1.18 µM and 1.21 µM; with KM12 colon it was 2.4 µM and 2.47 µM and 3.52 µM; in the assay on SF-268 CNS, 0.276 µM and 0.257 µM and 0.36 µM. Further, the TGI in the assay with OVCAR-4 ovarian is 4.87 µM and 4.02 µM and 4.54 µM; in the assay with CAKI-1 renal, 45.2 µM and > 45.9 µM and > 100 µM; in the assay on NCI-H23 lung, 4.54 µM and 8.5 µM and 5.81 µM; in the assay with TK-10 renal it was 24.6 µM and 22.5 µM and 8.88 µM; in the assay on OVCAR-3 ovarian, 7.71 µM and 11.5 µM and 11 µM; in the assay with SF-539 CNS it was 3.42 µM and 6.7 µM and 4.07 µM. Further, the TGI with UACC-62 melanoma was 4.25 µM and 4.33 µM and 2.97 µM; in the assay on MALME-3M melanoma, 4.97 µM and 6.88 µM and 3.85 µM; with KM12 colon, 9.12 µM and 21.1 µM and 20.3 µM; with SF-268 CNS, 2.61 µM and 3.34 µM and 3.76 µM.
Take `O=C(CCCCCNC1=CC(=O)c2ccccc2C1=O)NCCC[Te]c1ccccc1`: the GI50 in the assay with OVCAR-4 ovarian was 2.21 µM; in the assay on CAKI-1 renal, 1.7 µM; in the assay with NCI-H23 lung, 0.336 µM; with TK-10 renal, 2.05 µM; with OVCAR-3 ovarian, 0.676 µM; in the assay on SF-539 CNS it was 0.618 µM. In addition, the GI50 is 1.32 µM in the assay with UACC-62 melanoma, 2.21 µM with MALME-3M melanoma, 0.351 µM in the assay on KM12 colon and 0.359 µM in the assay with SF-268 CNS. In addition, the TGI in the assay with OVCAR-4 ovarian is 7.59 µM; in the assay on CAKI-1 renal it was 3.93 µM; with NCI-H23 lung it was 1.48 µM; in the assay on TK-10 renal, 6.04 µM; in the assay on OVCAR-3 ovarian, 2.22 µM; in the assay on SF-539 CNS, 2.15 µM. Further, the TGI in the assay with UACC-62 melanoma came out at 3.37 µM; in the assay with MALME-3M melanoma, 4.21 µM; in the assay on KM12 colon it was 1.3 µM; with SF-268 CNS, 1.41 µM.
For the molecule `COC(=O)c1c2c(c(C)[n+]([O-])c1C)C(=O)C=C(NCc1ccc(Br)cc1)C2=O`, the GI50 with OVCAR-4 ovarian was 0.181 µM; in the assay on CAKI-1 renal, 0.0597 µM; in the assay with NCI-H23 lung, 0.721 µM; in the assay on TK-10 renal it was 2.27 µM; in the assay with OVCAR-3 ovarian, 0.252 µM; in the assay with SF-539 CNS, 0.72 µM. For the same molecule, the GI50 with UACC-62 melanoma is 0.0438 µM; with MALME-3M melanoma it was 0.154 µM; in the assay with KM12 colon it was 0.171 µM; in the assay on SF-268 CNS it was 1.22 µM. The TGI in the assay on OVCAR-4 ovarian is 1.04 µM; in the assay with CAKI-1 renal, 1.64 µM; in the assay with NCI-H23 lung, 3.32 µM; in the assay on TK-10 renal, 5.88 µM; in the assay with OVCAR-3 ovarian, 0.845 µM; with SF-539 CNS it was 2 µM. Also, the TGI was 1.09 µM in the assay on UACC-62 melanoma, 0.389 µM in the assay on MALME-3M melanoma, 1.81 µM with KM12 colon and 3.35 µM in the assay on SF-268 CNS.
On to `O=Cc1c[nH]c2ccc(-c3csc4ccccc34)cc12`, for which the GI50 is 5.12 µM in the assay on OVCAR-4 ovarian; 1.93 µM in the assay on CAKI-1 renal; 18.2 µM with NCI-H23 lung; 3.13 µM with TK-10 renal; 2.01 µM in the assay with OVCAR-3 ovarian; 2.41 µM in the assay on SF-539 CNS. Moreover, the GI50 in the assay on UACC-62 melanoma is 3.02 µM; in the assay with MALME-3M melanoma, 4.39 µM; in the assay on KM12 colon, 3.39 µM; with SF-268 CNS, 4.42 µM. Also, the TGI in the assay with OVCAR-4 ovarian was greater than 100 µM; with CAKI-1 renal, greater than 100 µM; in the assay on NCI-H23 lung it was greater than 100 µM; in the assay on TK-10 renal it was 16.7 µM; in the assay with OVCAR-3 ovarian, 5.03 µM; in the assay on SF-539 CNS, 7.52 µM. Further, the TGI was 34.6 µM in the assay with UACC-62 melanoma, 37.5 µM with MALME-3M melanoma, greater than 100 µM in the assay with KM12 colon and 54.3 µM in the assay on SF-268 CNS.
For the molecule `CC(C)(C)C1CCC(CI)(N=[N+]=[N-])CC1` (stereo not given), the TGI in the assay with OVCAR-4 ovarian, in the assay on CAKI-1 renal, in the assay with NCI-H23 lung, in the assay with TK-10 renal, in the assay with OVCAR-3 ovarian and in the assay on SF-539 CNS was greater than 100 µM each time. The TGI with UACC-62 melanoma, in the assay on MALME-3M melanoma, with KM12 colon and with SF-268 CNS was greater than 100 µM throughout.
